According to PMC9381133 (Molecular Cancer Therapeutics, 2022):

Target: T1, CD73 (ecto-5′-nucleotidase) (Mus musculus, UniProt Q61503)
T1 sequence (Q61503 29-551): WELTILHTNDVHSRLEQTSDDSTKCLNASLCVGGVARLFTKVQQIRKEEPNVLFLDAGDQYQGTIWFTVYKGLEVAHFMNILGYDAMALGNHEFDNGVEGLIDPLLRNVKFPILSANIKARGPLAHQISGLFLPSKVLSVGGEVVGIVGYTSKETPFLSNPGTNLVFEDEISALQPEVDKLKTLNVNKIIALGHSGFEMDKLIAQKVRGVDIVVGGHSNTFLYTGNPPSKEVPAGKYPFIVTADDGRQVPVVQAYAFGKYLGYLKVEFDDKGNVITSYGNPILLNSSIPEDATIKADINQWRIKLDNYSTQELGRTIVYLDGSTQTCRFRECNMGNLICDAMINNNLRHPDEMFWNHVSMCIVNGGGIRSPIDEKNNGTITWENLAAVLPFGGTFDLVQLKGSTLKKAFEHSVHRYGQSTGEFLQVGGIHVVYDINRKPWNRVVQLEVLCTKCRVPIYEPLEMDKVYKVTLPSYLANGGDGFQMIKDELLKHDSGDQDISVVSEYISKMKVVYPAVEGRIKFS
Assay: […]5-AMP hydrolysis in B16F10 tumor homogenate, LC/MS of […]5-adenosine
Assay type: biochemical

## C[C@H](Nc1cc(Cl)nc2c1cnn2[C@@H]1O[C@H](COP(=O)(O)CP(=O)(O)O)[C@@H](O)[C@H]1O)c1ccccc1F [AB680]
  IC50: 0.704 nM
